Results from article PMC9412362, “Design, Synthesis, and Characterization of Novel Coordination Compounds of Benzimidazole Derivatives with Cadmium” (Pharmaceutics, 2022).
Values after ≈ are worked out from the molar mass of the structure shown. Where two headings read alike, the source gives them in different places.

Key:
P. aeruginosa ATCC 9027 = assay: MIC, micro-dilution broth method; type: cell-based, Pseudomonas aeruginosa; settings: for MIC: Pseudomonas aeruginosa, ATCC9027, Gram-negative bacteria
Procedure: (§1) Samples of complexes (about 20 mg) were digested in a concentrated mixture of 36% HCl (1 mL) and 65% HNO3 (6 mL). The contents of Cd (II) in the solid complexes were determined with an F-AAS spectrometer (Analytik Jena, contraAA 300, Jena, Germany) with a continuous source of light and using an air/acetylene flame (Analytik Jena, contraAA 300). Absorbances were measured at the analytical spectral lines at 228.8 nm for Cd (II). The limit of quantification was 0.004 mg/L for Cd (II). The solid samples were decomposed using an Anton Paar Multiwave 3000 (Graz, Austria) closed-system instrument. Mineralization was carried out for 45 min at 240 °C under a pressure of 60 bar. The contents of carbon, hydrogen, and nitrogen were determined with an instrument from Vario Micro Company Elementar Analysensysteme GmbH (Langenselbold, Germany). FTIR spectra were recorded with an IR Tracer-100 Schimadzu Spectrometer (4000–600 cm^−1 with an accuracy of recording of 1 cm^−1, Kyoto, Japan) using KBr pellets. The thermal analyses were carried out with a Netzsch STA 449 F1 Jupiter thermoanalyzer (Netzsch-Geratebau GmbH, Selb, Germany) coupled with a Netzsch Aeolos Quadro QMS 403 mass spectrometer (Netzsch-Geratebau GmbH, Selb, Germany). The samples were heated up to 1000 °C in corundum crucibles with a heating rate of 10 °C/min in an atmosphere of synthetic air (20% O2, 80% N2). The cytotoxic effects of the compounds were evaluated using glioblastoma (T98G), neuroblastoma (SK-N-AS), and lung adenocarcinoma (A549) cell lines and normal human skin fibroblasts (CCD-1059Sk). T98G and SK-N-AS cells were cultured in high-glucose DMEM and A549 cells were cultured in DMEM/F12, while CCD-1059Sk cells were cultured in MEM. All media were supplemented with 10% (FBS), 100 U/mL of penicillin, and […] of streptomycin (PenStrep). Cells were incubated at 37 °C in a humidified atmosphere of 5% CO2. Stock solutions were prepared by dissolving the compounds in sterile dimethyl sulfoxide (DMSO) to obtain a concentration of 50 mg/mL. The cells were seeded into sterile 96-well plates (Nunc) at a density of 1 × 10^5 cells/mL. After 24 h of incubation, the medium was removed from each well, and then the cells were incubated for the next 24 h with different concentrations of the tested compounds (1–100 µg/mL) in their respective media containing 2% FBS. The cytotoxicity of the compounds was evaluated using an MTT assay, which was based on the conversion of 3-(4,5-dimethylthiazol-2-yl)-2,5-diphenyltetrazolium bromide (MTT) into dark-blue formazan crystals. Briefly, after 24 h of incubation of the cells with varying concentrations of the tested compounds, all culture media were removed from the plates. The cells were washed with PBS, and then 100 µL of medium containing 10% MTT solution (5 mg/mL) was added to each well. After 3 h of incubation, 100 µL (per well) of 10% SDS buffer solution was added to solubilize the formazan crystals. After overnight incubation, the absorbance was measured at 570 nm using a microplate reader (Epoch, BioTek Instruments). Experiments were repeated twice, and the measurements in each experiment were run in triplicate. The viability of the investigated cells was expressed as the percentage of the viability of the untreated cells, and the results were transformed into IC50 values (expressed as mean ± SD). The complexes were screened for antibacterial and antifungal activity by using the micro-dilution broth method with Mueller–Hinton broth for the growth of bacteria or Mueller–Hinton broth with 2% glucose for the growth of fungi. […]

E. coli ATCC 25922 = assay: MIC, micro-dilution broth method; type: cell-based, Escherichia coli; settings: for MIC: Escherichia coli, ATCC25922, Gram-negative bacteria
Procedure: as §1

CCD-1059Sk cells = assay: MTT cytotoxicity assay, normal human skin fibroblasts CCD-1059Sk; type: cell-based; settings: normal human fibroblasts CCD-1059Sk, MTT assay after 24 h of incubation; read-out: IC50 ± SD, CCD-1059-Sk
Procedure: as §1

[1] = test system: S. typhimurium ATCC 14028; assay: MIC, micro-dilution broth method; type: cell-based, Salmonella Typhimurium; settings: Gram-negative bacteria; for MIC: Salmonella enterica
Procedure: as §1

C. albicans ATCC 102231 = assay: MIC, micro-dilution broth method; type: cell-based, Candida albicans; settings: for MIC, C. albicans ATCC 102231: Yeasts, micro-dilution broth with 2% glucose; for MIC: Candida albicans, ATCC102231, read-out: MIC, C. albicans ATCC 102231
Procedure: as §1

A549 cells = assay: MTT cytotoxicity assay, lung adenocarcinoma A549; type: cell-based, human; settings: lung carcinoma A549, MTT assay after 24 h of incubation, read-out: IC50 ± SD, A549
Procedure: as §1

SK-N-AS cells = assay: MTT cytotoxicity assay, neuroblastoma SK-N-AS; type: cell-based, human; settings: MTT assay after 24 h of incubation, read-out: IC50 ± SD, SK-N-AS
Procedure: as §1

P. mirabilis ATCC 12453 = assay: MIC, micro-dilution broth method; type: cell-based, Proteus mirabilis; settings: for MIC: Proteus mirabilis, ATCC12453, Gram-negative bacteria
Procedure: as §1

E. faecalis ATCC 29212 = assay: MIC, micro-dilution broth method; type: cell-based, Enterococcus faecalis; settings: Gram-positive bacteria, micro-dilution broth; for MIC: Enterococcus faecalis, ATCC29212, read-out: MIC, E. faecalis ATCC 29212
Procedure: as §1

B. cereus ATCC 10876 = assay: MIC, micro-dilution broth method; type: cell-based, Bacillus cereus; settings: Gram-positive bacteria, micro-dilution broth; for MIC: Bacillus cereus, ATCC10876, read-out: MIC, B. cereus ATCC 10876
Procedure: as §1

B. subtilis ATCC 6633 = assay: MIC, micro-dilution broth method; type: cell-based, Bacillus subtilis; settings: Gram-positive bacteria, micro-dilution broth; for MIC: Bacillus subtilis, ATCC6633, read-out: MIC, B. subtilis ATCC 6633
Procedure: as §1

S. aureus ATCC 25923 = assay: MIC, micro-dilution broth method; type: cell-based, Staphylococcus aureus; settings: Gram-positive bacteria, micro-dilution broth; for MIC: Staphylococcus aureus, ATCC25923, read-out: MIC, S. aureus ATCC 25923
Procedure: as §1

K. pneumoniae ATCC 13883 = assay: MIC, micro-dilution broth method; type: cell-based, Klebsiella pneumoniae; settings: for MIC: Klebsiella pneumoniae, ATCC13883, Gram-negative bacteria
Procedure: as §1

M. luteus ATCC 10240 = assay: MIC, micro-dilution broth method; type: cell-based, Micrococcus luteus; settings: Gram-positive bacteria, micro-dilution broth; for MIC: Micrococcus luteus, ATCC10240, read-out: MIC, M. luteus ATCC 10240
Procedure: as §1

T98G cells = assay: MTT cytotoxicity assay, glioblastoma T98G; type: cell-based, human; settings: MTT assay after 24 h of incubation, read-out: IC50 ± SD, T98G
Procedure: as §1

[2] = test system: S. epidermidis ATCC 12228; assay: MIC, micro-dilution broth method; type: cell-based, Staphylococcus epidermidis; settings: Gram-positive bacteria, micro-dilution broth; for MIC: Staphylococcus epidermidis, ATCC12228, read-out: MIC, S. epidermidis ATCC 12228
Procedure: as §1

C. glabrata ATCC 2091 = assay: MIC, micro-dilution broth method; type: cell-based; settings: for MIC, C. glabrata ATCC 2091: Yeasts, micro-dilution broth with 2% glucose; for MIC: Nakaseomyces glabratus, ATCC2091, read-out: MIC, C. glabrata ATCC 2091
Procedure: as §1

[3] = test system: C. parapsilosis ATCC 22019; assay: MIC, micro-dilution broth method; type: cell-based, Candida parapsilosis; settings: Yeasts, micro-dilution broth with 2% glucose; for MIC: Lodderomyces parapsilosis, ATCC22019
Procedure: as §1

Row | Structure (SMILES) | IC50 (CCD-1059Sk cells) [µM] | MIC, C. albicans ATCC 102231 (C. albicans ATCC 102231) [µg/mL] | IC50 (SK-N-AS cells) [µM] | MIC, C. glabrata ATCC 2091 (C. glabrata ATCC 2091) [µg/mL] | MIC, C. parapsilosis ATCC 22019 [3] [µg/mL] | IC50 (A549 cells; Homo sapiens) [µM] | IC50 (SK-N-AS cells; Homo sapiens, SK-N-AS, 24 h) [µM] | IC50 (T98G cells; Homo sapiens) [µM] | MIC (P. aeruginosa ATCC 9027) [µg/mL] | MIC (E. coli ATCC 25922) [µg/mL] | MIC [1] [µg/mL] | MIC (C. albicans ATCC 102231) [µg/mL] | MIC (P. mirabilis ATCC 12453) [µg/mL] | MIC (E. faecalis ATCC 29212) [µg/mL] | MIC (B. cereus ATCC 10876) [µg/mL] | MIC (B. subtilis ATCC 6633) [µg/mL] | MIC (S. aureus ATCC 25923) [µg/mL] | MIC (K. pneumoniae ATCC 13883) [µg/mL] | MIC (M. luteus ATCC 10240) [µg/mL] | MIC [2] [µg/mL] | further results
1 | O.O.[Cl][Cd][Cl].c1cncc(-c2nc3cccnc3[nH]2)c1 [C3, Cd(L3)Cl2∙2H2O] | 40.4 ± 0.41 | 125 | 34.5 ± 0.41 | 31.3 | 15.6 |  |  |  |  |  |  |  |  |  |  |  |  |  |  |  | MIC, P. aeruginosa ATCC 9027 (P. aeruginosa ATCC 9027; Gram-negative bacteria): 125 µg/mL; MIC, E. coli ATCC 25922 (E. coli ATCC 25922; Gram-negative bacteria): 125 µg/mL; MIC, S. typhimurium ATCC 14028 [1]: 125 µg/mL; IC50 (A549 cells): 47.2 ± 2.1 µM; MIC, P. mirabilis ATCC 12453 (P. mirabilis ATCC 12453; Gram-negative bacteria): 31.3 µg/mL; MIC, E. faecalis ATCC 29212 (E. faecalis ATCC 29212): >1000 µg/mL; MIC, B. cereus ATCC 10876 (B. cereus ATCC 10876): >1000 µg/mL; MIC, B. subtilis ATCC 6633 (B. subtilis ATCC 6633): 7.8 µg/mL; MIC, S. aureus ATCC 25923 (S. aureus ATCC 25923): 1000 µg/mL; MIC, K. pneumoniae ATCC 13883 (K. pneumoniae ATCC 13883; Gram-negative bacteria): 250 µg/mL; MIC, M. luteus ATCC 10240 (M. luteus ATCC 10240): 7.8 µg/mL; IC50 (T98G cells): 55.7 ± 2.5 µM; MIC, S. epidermidis ATCC 12228 [2]: 1000 µg/mL
2 | COc1cc([C@@H]2c3cc4c(cc3[C@@H](O[C@@H]3O[C@@H]5CO[C@@H](C)O[C@H]5[C@H](O)[C@H]3O)[C@H]3COC(=O)[C@H]23)OCO4)cc(OC)c1O [Etoposide, reference compound] | > 170 |  | 115 ± 3.5 |  |  | > 170 | 115 | > 170 |  |  |  |  |  |  |  |  |  |  |  |  | 
3 | c1cc(-c2nc3ccncc3[nH]2)ccn1 [L1] | > 509 |  |  |  |  | > 509 | > 509 | 210 ± 12 | > 1000 | > 1000 | > 1000 | > 1000 | > 1000 | > 1000 | > 1000 | > 1000 | > 1000 | > 1000 | 500 (≈ 2.55 mM) | > 1000 | MIC (C. glabrata ATCC 2091): > 1000 µg/mL; MIC [3]: > 1000 µg/mL
4 | C[C@@H]1[C@H](O)[C@@H](C)/C=C/C=C/CC/C=C/C=C/C=C/C=C/C(O[C@H]2O[C@H](C)[C@@H](O)[C@H](N)[C@@H]2O)CC2O[C@](O)(CC(O)C(O)CCC(O)CC(O)CC(O)CC(=O)O[C@H]1C)CC(O)C2C(=O)O (some centres unmarked) [Nys, nystatin, reference compound] |  | 0.24 (≈ 0.000259 mM) |  | 0.48 (≈ 0.000518 mM) | 0.24 (≈ 0.000259 mM) |  |  |  |  |  |  |  |  |  |  |  |  |  |  |  | 
5 | Brc1cnc2[nH]c(-c3cccnc3)nc2c1 [L4] | > 362 |  |  |  |  | > 362 | > 362 | > 362 | > 1000 | > 1000 | > 1000 | 500 (≈ 1.82 mM) | > 1000 | 1000 (≈ 3.63 mM) | 1000 (≈ 3.63 mM) | 1000 (≈ 3.63 mM) | > 1000 | > 1000 | > 1000 | 1000 (≈ 3.63 mM) | MIC (C. glabrata ATCC 2091): > 1000 µg/mL; MIC [3]: 1000 µg/mL (≈ 3.63 mM)
